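GI50 is the concentration that inhibits growth by half. TGI denotes the concentration required for complete inhibition of growth.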
Key:
Experiment in all cases: NCI-60 cell line screen, 384-well format; in the data active = GI50 below about 0.43 µM; inactive = the rest
IGROV1 ovarian = tested on: IGROV1 ovarian
SNB-75 CNS = tested on: SNB-75 CNS
OVCAR-5 ovarian = tested on: OVCAR-5 ovarian
CAKI-1 renal = tested on: CAKI-1 renal
OVCAR-8 ovarian = tested on: OVCAR-8 ovarian
KM12 colon = tested on: KM12 colon
M14 melanoma = tested on: M14 melanoma
SF-539 CNS = tested on: SF-539 CNS
K-562 leukemia = tested on: K-562 leukemia
HS 578T breast = tested on: HS 578T breast
EKVX NSCLC = tested on: EKVX NSCLC
RPMI-8226 leukemia = tested on: RPMI-8226 leukemia
A498 renal = tested on: A498 renal
HCT-15 colon = tested on: HCT-15 colon
SK-OV-3 ovarian = tested on: SK-OV-3 ovarian
MCF7 breast = tested on: MCF7 breast
NCI-H226 lung = tested on: NCI-H226 lung
786-0 renal = tested on: 786-0 renal
UACC-62 melanoma = tested on: UACC-62 melanoma
OVCAR-4 ovarian = tested on: OVCAR-4 ovarian
HOP-92 NSCLC = tested on: HOP-92 NSCLC
ACHN renal = tested on: ACHN renal
A549 NSCLC = tested on: A549 NSCLC
T-47D breast = tested on: T-47D breast
HOP-62 NSCLC = tested on: HOP-62 NSCLC
MDA-MB-231 breast = tested on: MDA-MB-231 breast
DU-145 prostate = tested on: DU-145 prostate
SK-MEL-5 melanoma = tested on: SK-MEL-5 melanoma
MALME-3M melanoma = tested on: MALME-3M melanoma
SNB-19 CNS = tested on: SNB-19 CNS
MOLT-4 leukemia = tested on: MOLT-4 leukemia
NCI/ADR-RES ovarian = tested on: NCI/ADR-RES ovarian
NCI-H460 NSCLC = tested on: NCI-H460 NSCLC
HCT-116 colon = tested on: HCT-116 colon
PC-3 prostate = tested on: PC-3 prostate
NCI-H23 lung = tested on: NCI-H23 lung
SW-620 colon = tested on: SW-620 colon
RXF 393 renal = tested on: RXF 393 renal
TK-10 renal = tested on: TK-10 renal
MDA-MB-468 breast = tested on: MDA-MB-468 breast
CCRF-CEM leukemia = tested on: CCRF-CEM leukemia
U251 glioblastoma = tested on: U251 glioblastoma
SF-268 CNS = tested on: SF-268 CNS
OVCAR-3 ovarian = tested on: OVCAR-3 ovarian
HCC-2998 colon = tested on: HCC-2998 colon
SK-MEL-28 melanoma = tested on: SK-MEL-28 melanoma
HL-60(TB) leukemia = tested on: HL-60(TB) leukemia

CC1=C(c2cccc(O)c2)[C@H](c2ccc(OCCN3CC(CF)C3)cc2)Oc2ccc(O)cc21
19.4 µM: TGI (NCI-H226 lung)
15.6 µM: TGI (SF-268 CNS)
13.5 µM: TGI (CAKI-1 renal)
2.97 µM: TGI (MOLT-4 leukemia)
22.7 µM: TGI (DU-145 prostate)
21.2 µM: TGI (A549 NSCLC)
4.35 µM: TGI (MDA-MB-468 breast)
19.2 µM: TGI (MDA-MB-231 breast)
12.4 µM: TGI (T-47D breast)
6.48 µM: TGI (A498 renal)
23.2 µM: TGI (ACHN renal)
16.4 µM: TGI (UACC-62 melanoma)
13.1 µM: TGI (HOP-92 NSCLC)
4.26 µM: TGI (SF-539 CNS)
5.29 µM: TGI (RXF 393 renal)
11.6 µM: TGI (SK-MEL-28 melanoma)
17.6 µM: TGI (TK-10 renal)
21.8 µM: TGI (OVCAR-8 ovarian)
13.2 µM: TGI (HCT-15 colon)
inactive: GI50 (IGROV1 ovarian) 4.88 µM | GI50 (SNB-75 CNS) 2.36 µM | GI50 (OVCAR-5 ovarian) 10.3 µM | GI50 (CAKI-1 renal) 3.42 µM | GI50 (OVCAR-8 ovarian) 10.1 µM | GI50 (KM12 colon) 3.21 µM | GI50 (M14 melanoma) 1.89 µM | GI50 (SF-539 CNS) 2.03 µM | GI50 (K-562 leukemia) 1.73 µM | GI50 (HS 578T breast) 2.48 µM | GI50 (EKVX NSCLC) 5.1 µM | GI50 (RPMI-8226 leukemia) 1.82 µM | GI50 (A498 renal) 2.28 µM | GI50 (HCT-15 colon) 3.57 µM | GI50 (SK-OV-3 ovarian) 5.77 µM | GI50 (NCI-H226 lung) 6.19 µM | GI50 ([…]-0 renal) 2.65 µM | GI50 (UACC-62 melanoma) 4.7 µM | GI50 (OVCAR-4 ovarian) 5.79 µM | GI50 (HOP-92 NSCLC) 3.83 µM | GI50 (ACHN renal) 11.1 µM | GI50 (A549 NSCLC) 9.02 µM | GI50 (T-47D breast) 1.11 µM | GI50 (HOP-62 NSCLC) 4.55 µM | GI50 (MDA-MB-231 breast) 6.48 µM | GI50 (DU-145 prostate) 10.8 µM | GI50 (SK-MEL-5 melanoma) 1.68 µM | GI50 (MALME-3M melanoma) 1.64 µM | GI50 (SNB-19 CNS) 10.5 µM | GI50 (MOLT-4 leukemia) 1.58 µM | GI50 (NCI/ADR-RES ovarian) 16.2 µM | GI50 (NCI-H460 NSCLC) 2.18 µM | GI50 (HCT-116 colon) 3.62 µM | GI50 (PC-3 prostate) 4.5 µM | GI50 (NCI-H23 lung) 7.02 µM | GI50 (SW-620 colon) 4.9 µM | GI50 (RXF 393 renal) 1.87 µM | GI50 (TK-10 renal) 5.15 µM | GI50 (MDA-MB-468 breast) 1.94 µM | GI50 (CCRF-CEM leukemia) 2.11 µM | GI50 (U251 glioblastoma) 5.35 µM | GI50 (SF-268 CNS) 4.24 µM | GI50 (OVCAR-3 ovarian) 4.05 µM | GI50 (HCC-2998 colon) 1.54 µM | GI50 (SK-MEL-28 melanoma) 3.05 µM | GI50 (HL-60(TB) leukemia) 1.86 µM
4.88 µM: TGI (NCI-H460 NSCLC) | TGI (CCRF-CEM leukemia)
22.3 µM: TGI (SNB-19 CNS)
3.05 µM: TGI (MALME-3M melanoma)
3.23 µM: TGI (HCC-2998 colon)
3.88 µM: TGI (M14 melanoma)
16.9 µM: TGI (IGROV1 ovarian) | TGI (PC-3 prostate)
29.8 µM: TGI (NCI/ADR-RES ovarian)
22.1 µM: TGI (OVCAR-5 ovarian)
4.02 µM: TGI (RPMI-8226 leukemia)
7.79 µM: TGI (SNB-75 CNS)
17.8 µM: TGI (OVCAR-4 ovarian)
7.32 µM: TGI (786-0 renal)
13.8 µM: TGI (HCT-116 colon)
15 µM: TGI (HOP-62 NSCLC)
17.1 µM: TGI (U251 glioblastoma)
3.29 µM: TGI (K-562 leukemia) | TGI (HL-60(TB) leukemia)
18.3 µM: TGI (SK-OV-3 ovarian)
15.4 µM: TGI (OVCAR-3 ovarian)
17.5 µM: TGI (EKVX NSCLC)
10.2 µM: TGI (KM12 colon)
3.07 µM: TGI (SK-MEL-5 melanoma)
12 µM: TGI (HS 578T breast)
19.6 µM: TGI (NCI-H23 lung)
1.97 µM: TGI (MCF7 breast)
16.6 µM: TGI (SW-620 colon)

Cc1cc([N+](=O)[O-])c(NS(=O)(=O)c2cccc(C(=O)O)c2)cc1-c1cccnc1
> 100 µM: TGI (IGROV1 ovarian) | TGI (SNB-75 CNS) | TGI (OVCAR-5 ovarian) | TGI (CAKI-1 renal) | TGI (OVCAR-8 ovarian) | TGI (KM12 colon) | TGI (M14 melanoma) | TGI (SF-539 CNS) | TGI (K-562 leukemia) | TGI (HS 578T breast) | TGI (EKVX NSCLC) | TGI (RPMI-8226 leukemia) | TGI (A498 renal) | TGI (HCT-15 colon) | TGI (SK-OV-3 ovarian) | TGI (MCF7 breast) | TGI (NCI-H226 lung) | TGI (786-0 renal) | TGI (UACC-62 melanoma) | TGI (OVCAR-4 ovarian) | TGI (HOP-92 NSCLC) | TGI (ACHN renal) | TGI (A549 NSCLC) | TGI (T-47D breast) | TGI (HOP-62 NSCLC) | TGI (MDA-MB-231 breast) | TGI (DU-145 prostate) | TGI (SK-MEL-5 melanoma) | TGI (MALME-3M melanoma) | TGI (SNB-19 CNS) | TGI (MOLT-4 leukemia) | TGI (NCI/ADR-RES ovarian) | TGI (NCI-H460 NSCLC) | TGI (HCT-116 colon) | TGI (PC-3 prostate) | TGI (NCI-H23 lung) | TGI (SW-620 colon) | TGI (RXF 393 renal) | TGI (TK-10 renal) | TGI (MDA-MB-468 breast) | TGI (CCRF-CEM leukemia) | TGI (U251 glioblastoma) | TGI (SF-268 CNS) | TGI (OVCAR-3 ovarian) | TGI (HCC-2998 colon) | TGI (SK-MEL-28 melanoma) | TGI (HL-60(TB) leukemia)
inactive: GI50 (IGROV1 ovarian) > 100 µM | GI50 (SNB-75 CNS) > 100 µM | GI50 (OVCAR-5 ovarian) > 100 µM | GI50 (CAKI-1 renal) > 100 µM | GI50 (OVCAR-8 ovarian) > 100 µM | GI50 (KM12 colon) 16.8 µM | GI50 (M14 melanoma) > 100 µM | GI50 (SF-539 CNS) > 100 µM | GI50 (K-562 leukemia) > 100 µM | GI50 (HS 578T breast) > 100 µM | GI50 (EKVX NSCLC) > 100 µM | GI50 (RPMI-8226 leukemia) > 100 µM | GI50 (A498 renal) > 100 µM | GI50 (HCT-15 colon) > 100 µM | GI50 (SK-OV-3 ovarian) > 100 µM | GI50 (MCF7 breast) > 100 µM | GI50 (NCI-H226 lung) > 100 µM | GI50 ([…]-0 renal) > 100 µM | GI50 (UACC-62 melanoma) > 100 µM | GI50 (OVCAR-4 ovarian) > 100 µM | GI50 (HOP-92 NSCLC) > 100 µM | GI50 (ACHN renal) > 100 µM | GI50 (A549 NSCLC) > 100 µM | GI50 (T-47D breast) > 100 µM | GI50 (HOP-62 NSCLC) > 100 µM | GI50 (MDA-MB-231 breast) > 100 µM | GI50 (DU-145 prostate) > 100 µM | GI50 (SK-MEL-5 melanoma) > 100 µM | GI50 (MALME-3M melanoma) > 100 µM | GI50 (SNB-19 CNS) > 100 µM | GI50 (MOLT-4 leukemia) > 100 µM | GI50 (NCI/ADR-RES ovarian) > 100 µM | GI50 (NCI-H460 NSCLC) > 100 µM | GI50 (HCT-116 colon) > 100 µM | GI50 (PC-3 prostate) > 100 µM | GI50 (NCI-H23 lung) > 100 µM | GI50 (SW-620 colon) > 100 µM | GI50 (RXF 393 renal) > 100 µM | GI50 (TK-10 renal) > 100 µM | GI50 (MDA-MB-468 breast) > 100 µM | GI50 (CCRF-CEM leukemia) > 100 µM | GI50 (U251 glioblastoma) > 100 µM | GI50 (SF-268 CNS) > 100 µM | GI50 (OVCAR-3 ovarian) > 100 µM | GI50 (HCC-2998 colon) > 100 µM | GI50 (SK-MEL-28 melanoma) > 100 µM | GI50 (HL-60(TB) leukemia) > 100 µM
